Patent US20120101099A1, “HISTONE DEACETYLASE INHIBITORS” (ANTHEM BIOSCIENCES PRIVATE LIMITED, priority 2009, published 2012)
Read-outs that look alike come from different tables or passages of the source.

What was measured:
[1] = Metabolic stability in mouse liver microsomes; type: in vitro ADME; details: 100 μM, 37° C.
Method: The objective of the study is to determine the metabolic stability of the compounds in mouse liver microsomes. Brief procedure: metabolic stability of test compounds were carried out using mouse liver microsomes. The final composition of the assay includes test compound 100 μM (dissolved in DMSO), mouse microsomal protein 0.5 mg/mL and cofactors (G-6-P 5.0 mM, G-6-PDH 0.06 U, MgCl2 2.0 mM, NADP+1.0 mM, UDPGA 0.5 mM, PAPS 0.6 mM and GSH 1 mM). The test compounds were incubated at with mouse liver microsomes with cofactors. After 1 h incubation at 37° C., the reaction was stopped by addition of stop solution (ice cold acetonitrile). The samples were centrifuged and supernatants were analysed using LC/MS/MS. The Percent of parent test compounds remaining after 1 h of incubation time was calculated with respect to the peak areas of at time 0.

Calu-6 = test: Anti-proliferative activity (GI50); type: cell-based; details: Homo sapiens, Calu-6; Table 9; Lung; read-out: Anti-proliferative activity (GI50) Calu-6
Method: (§1) Cells were seeded in a 96-well cell culture plates at a concentration of 10,000 cells per well and incubated at 37° C. in CO2 incubator.
(§2) Twenty-four hours later cells were treated with different concentrations (100, 10, 1, 0.1, and 0.01 μM) of compound dissolved in DMSO and incubated for 48 hours. For To measurement, 24 hours after seeding the cells, 20 μL of 3-(4.5-dimethyl-2- thiazolyl)-2,5-diphenyl-2H-tetrazolium (MTT) solution per well was added to the T0 plate and incubated for 3 hours at 37° C. in a CO2 incubator.
(§3) The plate containing cells and test compounds was treated similarly after 48 hours of incubation. After 3 hours of MTT addition, well contents were aspirated carefully followed by addition of 100 μL DMSO per well. Plates were agitated to ensure dissolution of the formazan crystals in DMSO and absorbance was read at 570 nm (A570). […] From the percentage growths a dose response curve was generated and GI50 values were interpolated from the growth curves.

U-87-MG = test: Anti-proliferative activity (GI50); type: cell-based; details: Homo sapiens, Table 9, Brain, read-out: Anti-proliferative activity (GI50) U-87-MG
Method: as §1, §2, §3

HCT-15 = test: Anti-proliferative activity (GI50); type: cell-based; details: Homo sapiens, HCT-15; Table 9; Colon; read-out: Anti-proliferative activity (GI50) HCT-15
Method: as §1, §2, §3

PANC-1 = test: Anti-proliferative activity (GI50); type: cell-based; details: Homo sapiens, PANC-1; Table 9; Pancreas; read-out: Anti-proliferative activity (GI50) PANC-1
Method: as §1, §2, §3

Hela-S3 = test: Anti-proliferative activity (GI50); type: cell-based; details: Homo sapiens, HeLa S3; Table 9; Cervix; read-out: Anti-proliferative activity (GI50) Hela-S3
Method: as §1, §2, §3

IMR-32 = test: Anti-proliferative activity (GI50); type: cell-based; details: Homo sapiens, IMR-32; Table 9; Brain; read-out: Anti-proliferative activity (GI50) IMR-32
Method: as §1, §2, §3

RPMI-8226 = test: Anti-proliferative activity (GI50); type: cell-based; details: Homo sapiens, RPMI-8226; Table 9; Leukemia; read-out: Anti-proliferative activity (GI50) RPMI-8226
Method: as §1, §2, §3

Ca Ski = test: Anti-proliferative activity (GI50); type: cell-based; details: Homo sapiens, Table 9, Cervix, read-out: Anti-proliferative activity (GI50) Ca Ski
Method: as §1, §2, §3

KHOS = test: Anti-proliferative activity (GI50); type: cell-based; details: Table 9; Bone; read-out: Anti-proliferative activity (GI50) KHOS
Method: as §1, §2, §3

ACHN = test: Anti-proliferative activity (GI50); type: cell-based; details: Homo sapiens, Table 9, Renal, read-out: Anti-proliferative activity (GI50) ACHN
Method: as §1, §2, §3

K562 = test: Anti-proliferative activity (GI50); type: cell-based; details: Homo sapiens, K562; Table 9; Leukemia; read-out: Anti-proliferative activity (GI50) K562
Method: as §1, §2, §3

A431 = test: Anti-proliferative activity (GI50); type: cell-based; details: Homo sapiens, A-431; Table 9; Skin; read-out: Anti-proliferative activity (GI50) A431
Method: as §1, §2, §3

Colo-205 = test: Anti-proliferative activity (GI50); type: cell-based; details: Homo sapiens, COLO 205; Table 9; Colon; read-out: Anti-proliferative activity (GI50) Colo-205
Method: as §1, §2, §3

HCT-116 = test: Anti-proliferative activity (GI50); type: cell-based; details: Homo sapiens, HCT-116; Table 9; Colon; read-out: Anti-proliferative activity (GI50) HCT-116
Method: as §1, §2, §3

DU-145 = test: Anti-proliferative activity (GI50); type: cell-based; details: Homo sapiens, DU-145; Table 9; Prostate; read-out: Anti-proliferative activity (GI50) DU-145
Method: as §1, §2, §3

SH-SY-5Y = test: Anti-proliferative activity (GI50); type: cell-based; details: Homo sapiens, SH-SY5Y; Table 9; Brain; read-out: Anti-proliferative activity (GI50) SH-SY-5Y
Method: as §1, §2, §3

MCF-7 = test: Anti-proliferative activity (GI50); type: cell-based; details: Homo sapiens, MCF7; Table 9; Breast; read-out: Anti-proliferative activity (GI50) MCF-7
Method: as §1, §2, §3

PC-3 = test: Cell proliferation assay (MTT); type: cell-based; details: Homo sapiens, PC-3
Method: as §1, §2, §3

A549 = test: Cell proliferation assay (MTT); type: cell-based; details: Homo sapiens, A549
Method: as §1, §2, §3

HT-29 = test: Cell proliferation assay (MTT); type: cell-based; details: Homo sapiens, HT-29
Method: as §1, §2, §3

acetyl-Histone H3 = test: Histone hyperacetylation in Hela cells (Western Blot); type: cell-based; design: key: represented by the symbol ‘+’ which indicates the relative extent of modulation; ++: represented by the symbol ‘+’ which indicates the relative extent of modulation; +++: represented by the symbol ‘+’ which indicates the relative extent of modulation; ++++: represented by the symbol ‘+’ which indicates the relative extent of modulation; details: 24 hrs, 0.03-3.0 μM
Method: HeLa Cells were seeded at a density of 0.4×10^6 Cells/well into 6 well plates and incubated for 24 h The compounds were tested at 5 different concentrations (0.03, 0.1, 0.3, 1.0, 3.0 μM) with corresponding control. After 24 hrs cells were lysed and histone proteins were extracted as per established protocols and the extract was used for measuring H3 and H4 hyperacetylation by Western Blot using Anti-acetyl-Histone H3 and Anti-acetyl-Histone H4 (Millipore, USA) antibodies.

[2] = Table 1, MTT, 48 hours, read-out: Cell growth inhibition (GI50 in μM) PC-3
[3] = Table 9, Prostate, read-out: Anti-proliferative activity (GI50) PC-3
[4] = Table 1, MTT, 48 hours, read-out: Cell growth inhibition (GI50 in μM) A549
[5] = Table 9, Lung, read-out: Anti-proliferative activity (GI50) A549
[6] = Table 1, MTT, 48 hours, read-out: Cell growth inhibition (GI50 in μM) HT-29
[7] = Table 9, Colon, read-out: Anti-proliferative activity (GI50) HT-29

Row | Structure (SMILES) | % Stable compounds after 1 hr incubation [1] [%] | GI50 (Calu-6) [nM] | GI50 (U-87-MG) [nM] | GI50 (HCT-15) [nM] | GI50 (PANC-1) [nM] | GI50 (Hela-S3) [nM] | GI50 (IMR-32) [nM] | GI50 (RPMI-8226) [nM] | GI50 (Ca Ski) [nM] | GI50 (KHOS) [nM] | GI50 (ACHN) [nM] | GI50 (K562) [nM] | GI50 (A431) [nM] | GI50 (Colo-205) [nM] | GI50 (HCT-116) [nM] | GI50 (DU-145) [nM] | GI50 (SH-SY-5Y) [nM] | GI50 (MCF-7) [nM] | GI50 (PC-3; [2]) [µM] | GI50 (PC-3; [3]) [µM] | also measured
1 | O=C(NO)c1ccc(Cn2cc(-c3ccc(CN4CCCC4)cc3)nn2)cc1 [Example 8, N-Hydroxy-4-[4-(4-pyrrolidin-1-ylmethyl-phenyl)-[1,2,3]triazol-1-ylmethyl]-benzamide] | 100 | 600 ± 330 | 500 ± 90 | 19300 ± 3800 | 1300 | 400 ± 90 | 400 ± 90 | 400 ± 300 | 1100 ± 490 | 2400 ± 400 | 300 ± 140 | 300 ± 60 | 500 ± 130 | 300 ± 50 | 100 ± 40 | 200 ± 60 | 200 ± 80 | 2600 ± 1260 | 16.8 ± 8.8 | 4.1 ± 0.38 | GI50 (A549; [4]): 4.1 ± 0.6 µM; GI50 (A549; [5]): 3.1 ± 1.99 µM; GI50 (HT-29; [6]): 0.2 µM; GI50 (HT-29; [7]): 1.3 ± 0.33 µM; Target modulation: H3 acetylation (acetyl-Histone H3): +++
2 | O=C(NO)c1ccc(Cn2cc(-c3ccc(CN4CCOCC4)cc3)nn2)cc1 [Example 9, N-Hydroxy-4-[4-(4-morpholin-4-ylmethyl-phenyl)-[1,2,3]triazol-1-ylmethyl]-benzamide] | 100 | 1400 ± 310 | 2700 ± 740 | 4100 ± 3200 | 6600 | 600 ± 160 | 900 ± 201 | 500 ± 430 | 1200 ± 220 | 2800 ± 360 | 700 ± 110 | 300 ± 74 | 1200 ± 533 | 300 ± 71 | 1200 ± 18 | 300 ± 124 | 200 ± 60 | 5700 ± 1620 | 22 ± 5.4 | 13.4 ± 3.3 | GI50 (A549; [4]): 5 ± 1.6 µM; GI50 (A549; [5]): 4.5 ± 2.33 µM; GI50 (HT-29; [7]): 1.5 ± 0.65 µM; Target modulation: H3 acetylation (acetyl-Histone H3): ++++
3 | O=C(/C=C/c1ccc(Cn2cc(-c3ccc(CN4CCCC4)cc3)nn2)cc1)NO [Example 16, N-Hydroxy-3-{4-[4-(4-pyrrolidin-1-ylmethyl-phenyl)-[1,2,3]triazol-1-ylmethyl]-phenyl}-acrylamide] | 98 | 410 ± 160 | 760 ± 660 | 9800 ± 4300 | 1030 | 230 ± 120 | 250 ± 70 | 150 ± 50 | 420 ± 150 | 11700 ± 1100 | 90 ± 20 | 190 ± 50 | 280 ± 50 | 310 ± 60 | 100 ± 110 | 79 ± 40 | 340 ± 33 | 3500 ± 2600 | 12.6 ± 7.6 | 3.5 ± 2.7 | GI50 (A549; [4]): 1.7 ± 1 µM; GI50 (A549; [5]): 1.58 ± 1.1 µM; GI50 (HT-29; [6]): 0.04 µM; GI50 (HT-29; [7]): 0.15 ± 0.13 µM; Target modulation: H3 acetylation (acetyl-Histone H3): ++
4 | CN(C)Cc1ccc(-c2cn(Cc3ccc(/C=C/C(=O)NO)cc3)nn2)cc1 [Example 21] | 65 | 400 ± 120 | 1000 ± 330 | 1800 ± 1140 | 1400 | 200 ± 80 | 200 ± 40 | 300 ± 160 | 1100 ± 730 | 10300 ± 3260 | 100 ± 40 | 200 ± 40 | 400 ± 80 | 400 ± 40 | 200 ± 40 | 100 ± 40 | 100 | 5500 ± 1200 | 11.3 ± 8.3 | 4.8 ± 1.4 | GI50 (A549; [4]): 2.2 ± 2.3 µM; GI50 (A549; [5]): 2.2 ± 2.22 µM; GI50 (HT-29; [7]): 2.1 ± 0.46 µM; Target modulation: H3 acetylation (acetyl-Histone H3): +++
